Reference: patent publication US20230029496A1, “AMINO ACID ALTERNATIVE CURING SYSTEM” (THE TEXAS A&M UNIVERSITY SYSTEM, priority 2019, published 2023)
Several values for one entry are separate records, joined by “and”; a condition that tells them apart may be missing. Equal entries are not always repeated. Marks after values point to notes of the source that are not given here.

System: Nitric Oxide Synthase (NOS) system
Test: Cure efficiency (NO-heme, total heme, nitrosylation) of cooked pre-rigor pork semimembranosus muscle (first study)
Assay type: biochemical
Settings: for NO-Heme / Total Heme: ppm acid hematin
Description: Cooked meat samples were subjected to analysis to determine the degree of nitrosylation of residual nitrite, the procedure set forth by Pearson and Tauber (Pearson and Tauber, 1984) from Hornsey's procedure for analyzing small samples was used to analyze sample supernatant and pellet. 2 mL or 2 g of the samples were treated with acetone to measure NO-heme concentration and separately 2 mL or 2 g of the samples were treated with acetone and hydrochloric acid to measure total heme concentration in a 1 cm quartz cuvette. NO-heme concentration (ppm acid hematin) was determined using a spectrophotometer (2100 Series Spectrophotometer, Unico, Dayton, N.J.) by reading samples at 540 nm. Total heme concentration (ppm acid hematin) was determined at 640 nm determined nitrosylation, which indicated how well varying concentrations of L-arginine affected the NOS system's ability to cure, known as cure efficiency. This procedure measured how much myoglobin was converted to nitroso-hemochromagen, the cured meat color, and the level of conversion compared to all pigmentation within the sample.
Curing efficiency or nitrosylation is calculated as the percentage conversion of NO-heme to total heme. Cure efficiency is the percentage of total pigment converted to nitroso pigment and indicated the degree of cured color fading. Cured meat pigment is extracted in a solution of 80% acetone and 20% water that extracts cured pigment heme. Total heme pigments are extracted using an acidified acetone solution that extracts heme from all heme proteins as first used by Hornsey. NO-heme concentration (as ppm acid hematin)=sample A540×290 determines the specific cure color pink from the rest of the heme pigmentation of the sample. Total heme concentration (ppm acid hematin)=sample A640×680 determines the total heme pigmentation of the sample. Cure efficiency (%)=(ppm of nitrosoheme […]ppm of total pigment)×100 and indicates how much of the product is cured and holds the cured pink stability once cooked.
Procedures • 1. Do all procedures in subdued light to reduce fading of pigment. • 2. Weigh out 2.0 g minced lean meat sample in a 50-mL polypropylene centrifuge tube. • 3. Pipette 9.0 mL acetone-a into 50-mL tube, to obtain acetone concentration of 80%. • 4. Mix thoroughly with a probe-type homogenizer or a glass rod. • 5. Cap the tube to minimize evaporation of acetone, and mix by gentle swirling. • 6. Let stand 10 minutes in the dark, then filter through medium-fast filter paper into a glass test tube. • 7. Transfer filtrate into a 1-cm quartz cuvette and read absorbance at 540 nm. (Avoid use of disposable plastic cuvettes. They become opaque upon exposure to acetone). Calculate nitroso pigment concentration as previously described. • 8. Prepare another 2.0-g sample, using acetone-b. • 9. Macerate and hold 1 hour in the dark before filtering. • 10. Filter the extract as before, and read absorbance at 640 nm. Calculate total pigment and cure efficiency as previously described.

[1] = 2 mM L-arginine, cooked supernatant
[2] = 4 mM L-arginine, cooked supernatant
[3] = 8 mM L-arginine, cooked supernatant
[4] = 16 mM L-arginine, cooked pellet
[5] = 16 mM L-arginine, cooked supernatant
[6] = 32 mM L-arginine, cooked pellet
[7] = 32 mM L-arginine, cooked supernatant

N=C(N)NCCC[C@H](N)C(=O)O [L-arginine]
Nitrosylation (Cure Efficiency) (2 mM L-arginine, cooked pellet): 46.51% and 46.51^ab %
NO-Heme (2 mM L-arginine, cooked pellet): 8.70^a ppm
Total Heme (2 mM L-arginine, cooked pellet): 64.77 ppm and 64.77^a ppm
Nitrosylation (Cure Efficiency) [1]: 125.52^a %
NO-Heme [1]: 43.94^a ppm
Total Heme [1]: 24.22 ppm and 24.22^ab ppm
Nitrosylation (Cure Efficiency) (4 mM L-arginine, cooked pellet): 74.27% and 74.27^ab %
NO-Heme (4 mM L-arginine, cooked pellet): 7.77^a ppm
Total Heme (4 mM L-arginine, cooked pellet): 35.87^ab ppm
Nitrosylation (Cure Efficiency) [2]: 155.68^a %
NO-Heme [2]: 21.09^a ppm
Total Heme [2]: 34.17 ppm and 34.17^ab ppm
Nitrosylation (Cure Efficiency) (8 mM L-arginine, cooked pellet): 70.13% and 70.13^ab %
NO-Heme (8 mM L-arginine, cooked pellet): 9.33^a ppm
Total Heme (8 mM L-arginine, cooked pellet): 33.44^ab ppm
Nitrosylation (Cure Efficiency) [3]: 108.99^a %
NO-Heme [3]: 16.44^a ppm
Total Heme [3]: 70.38 ppm and 70.38^a ppm
Nitrosylation (Cure Efficiency) [4]: 97.82% and 97.82^ab %
NO-Heme [4]: 11.69^a ppm
Total Heme [4]: 36.04^ab ppm
Nitrosylation (Cure Efficiency) [5]: 110.11^a %
NO-Heme [5]: 16.73^a ppm
Total Heme [5]: 20.14 ppm and 20.14^ab ppm
Nitrosylation (Cure Efficiency) [6]: 156.72% and 156.72^a %
NO-Heme [6]: 13.05^a ppm
Total Heme [6]: 54.40^ab ppm
Nitrosylation (Cure Efficiency) [7]: 50.48^a %
NO-Heme [7]: 16.86^a ppm
Total Heme [7]: 31.67 ppm and 31.67^ab ppm
cure efficiency (cooked supernatant, at all L-arginine concentrations): over 100%
